In article PMC6358021 (European journal of medicinal chemistry, 2018):

Key:
human Smo = details: HEK293 cells that stably express human Smo; cited from earlier work
P-glycoprotein (Pgp) = P-glycoprotein (Pgp) (Homo sapiens, UniProt P08183); assay: P-glycoprotein substrate assessment; type: in vitro ADME; details: CRO service (Pharmaron or Cyprotex)
CYP3A4 = CYP3A4 (Homo sapiens, UniProt P08684); assay: CYP3A4 inhibition; type: in vitro ADME; details: removal of the triazole moiety
[1] = tested on: Gli1 mRNA expression in ASZ cells; assay: Hh inhibition: down-regulation of endogenous Gli1 mRNA expression in ASZ cells; type: cell-based, murine

Sequence of P-glycoprotein (Pgp) (P08183 whole entry): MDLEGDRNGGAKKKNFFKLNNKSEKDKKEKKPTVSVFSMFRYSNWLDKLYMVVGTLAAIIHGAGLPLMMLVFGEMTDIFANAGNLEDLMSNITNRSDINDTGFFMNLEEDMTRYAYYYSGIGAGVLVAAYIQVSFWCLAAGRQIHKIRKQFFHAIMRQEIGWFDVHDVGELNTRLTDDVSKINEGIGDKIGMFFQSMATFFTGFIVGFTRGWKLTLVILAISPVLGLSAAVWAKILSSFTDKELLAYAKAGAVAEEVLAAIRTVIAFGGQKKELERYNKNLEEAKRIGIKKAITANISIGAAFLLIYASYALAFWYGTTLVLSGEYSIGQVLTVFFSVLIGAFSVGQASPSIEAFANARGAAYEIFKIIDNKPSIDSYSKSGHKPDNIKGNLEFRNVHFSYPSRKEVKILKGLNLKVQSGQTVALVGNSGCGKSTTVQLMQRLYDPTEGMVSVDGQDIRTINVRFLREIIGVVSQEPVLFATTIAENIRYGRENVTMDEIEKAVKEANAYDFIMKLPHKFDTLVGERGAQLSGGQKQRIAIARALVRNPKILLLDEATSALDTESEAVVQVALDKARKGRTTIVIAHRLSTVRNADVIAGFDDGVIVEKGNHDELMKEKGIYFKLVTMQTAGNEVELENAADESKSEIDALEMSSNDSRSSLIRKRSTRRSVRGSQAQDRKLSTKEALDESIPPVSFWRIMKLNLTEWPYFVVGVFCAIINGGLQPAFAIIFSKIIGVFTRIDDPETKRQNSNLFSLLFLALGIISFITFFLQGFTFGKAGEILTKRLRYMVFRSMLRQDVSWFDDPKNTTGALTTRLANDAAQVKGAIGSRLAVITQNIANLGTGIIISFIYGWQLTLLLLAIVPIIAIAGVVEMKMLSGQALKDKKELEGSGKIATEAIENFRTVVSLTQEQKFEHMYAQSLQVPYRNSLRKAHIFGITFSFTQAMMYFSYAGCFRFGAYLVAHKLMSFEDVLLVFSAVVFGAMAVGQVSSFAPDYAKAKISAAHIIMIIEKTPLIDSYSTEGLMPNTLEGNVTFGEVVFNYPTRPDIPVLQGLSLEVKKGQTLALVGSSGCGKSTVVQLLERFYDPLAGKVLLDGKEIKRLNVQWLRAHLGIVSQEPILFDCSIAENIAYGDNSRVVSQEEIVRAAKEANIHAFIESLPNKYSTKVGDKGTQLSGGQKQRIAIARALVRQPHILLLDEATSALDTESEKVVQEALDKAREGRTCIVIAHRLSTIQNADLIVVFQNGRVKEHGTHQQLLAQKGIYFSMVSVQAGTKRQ
Sequence of CYP3A4 (P08684 whole entry): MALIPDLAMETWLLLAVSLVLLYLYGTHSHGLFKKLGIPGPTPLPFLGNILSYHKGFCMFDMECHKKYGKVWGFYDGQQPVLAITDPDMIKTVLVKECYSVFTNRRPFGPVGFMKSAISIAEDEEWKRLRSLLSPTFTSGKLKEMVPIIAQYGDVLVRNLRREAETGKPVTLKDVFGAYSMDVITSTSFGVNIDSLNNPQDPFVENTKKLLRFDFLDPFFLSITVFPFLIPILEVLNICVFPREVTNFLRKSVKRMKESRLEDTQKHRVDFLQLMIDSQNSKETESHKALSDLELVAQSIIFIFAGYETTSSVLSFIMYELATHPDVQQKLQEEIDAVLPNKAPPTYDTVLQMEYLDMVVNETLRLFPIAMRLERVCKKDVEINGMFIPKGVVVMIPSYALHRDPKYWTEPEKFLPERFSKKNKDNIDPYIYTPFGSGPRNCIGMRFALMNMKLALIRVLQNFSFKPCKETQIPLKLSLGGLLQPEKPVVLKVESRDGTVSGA

In the case of `CCC(C)n1ncn(-c2ccc(N3CCN(c4ccc(OCC5COC(Cn6cncn6)(c6ccc(Cl)cc6Cl)O5)cc4)CC3)cc2)c1=O` (stereo not drawn) [ITZ, itraconazole], the “displacement of a tritiated Smo antagonist” value (human Smo) is given as “significantly displaced”.

In the case of `CC[C@@H]([C@H](C)O)n1ncn(-c2ccc(N3CCN(c4ccc(OC[C@@H]5CO[C@@](Cn6cncn6)(c6ccc(F)cc6F)C5)cc4)CC3)cc2)c1=O` [PSZ, Posaconazole, reference compound], the “P-gp Substrate” value (P-glycoprotein (Pgp)) is reported as “identified as a substrate”.

For `CC[C@@H](C)n1ncn(-c2ccc(N3CCN(c4ccc(OC[C@@H]5CO[C@@](C)(c6ccc(F)cc6F)C5)cc4)CC3)cc2)c1=O` [analogue 1, 2-((R)-sec-butyl)-4-(4-(4-(4-(((3R,5R)-5-(2,4-difluorophenyl)-5-methyltetrahydrofuran-3-yl)methoxy)phenyl)-piperazin-1-yl)phenyl)-2,4-dihydro-3H-1,2,4-triazol-3-one], the “P-gp Substrate” value (P-glycoprotein (Pgp)) was “not a substrate”, the “ability to inhibit Cyp3A4, in words” value (CYP3A4) was “completely abolished” and the “fold more potent than PSZ” value ([1]; ratio of IC50 values) was “approximately 2.5 fold”.

In the case of `CC1(c2ccc(Cl)cc2Cl)OCC(COc2ccc(N3CCN(c4ccc(-n5cnn(CCC(=O)O)c5=O)cc4)CC3)cc2)O1` (stereo not drawn) [analogue 21, 3-(4-(4-(4-(4-((2-(2,4-dichlorophenyl)-2-methyl-1,3-dioxolan-4-yl)methoxy)phenyl)piperazin-1-yl)phenyl)-5-oxo-4,5-dihydro-1H-1,2,4-triazol-1-yl)propanoic acid], the “fold more active than 19” value [1] is reported as “approximately 2 fold”.
